The values below come from patent US20100137313A1 (ASTRAZENECA AB, priority 2008, published 2010).

The target in the assay is S. pneumoniae Topoisomerase IV ATPase (ParE) (Streptococcus pneumoniae serotype 4, UniProt Q59961). Nature of the assay: S. pneumoniae Topoisomerase IV ATPase inhibition. In kind it is biochemical. The following applies: values marked * are an average of two or more data points, read-out: % Inh (13 μM) of S. pneumoniae Topoisomerase IV ATPase. Summed up: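 S. pneumoniae ParE (1.25 nM) ATPase with 160 μM ATP and 5 μg/ml sheared DNA in pH 8.0 Tris, Mg2+, DTT, Brij-35; phosphate detected by malachite green/molybdate at 650 nm. Normalised to 2% DMSO (0%) and 20 μM EDTA (100%); IC50 from 10 concentrations.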
S. pneumoniae Topoisomerase IV ATPase (ParE), sequence (Q59961 whole entry): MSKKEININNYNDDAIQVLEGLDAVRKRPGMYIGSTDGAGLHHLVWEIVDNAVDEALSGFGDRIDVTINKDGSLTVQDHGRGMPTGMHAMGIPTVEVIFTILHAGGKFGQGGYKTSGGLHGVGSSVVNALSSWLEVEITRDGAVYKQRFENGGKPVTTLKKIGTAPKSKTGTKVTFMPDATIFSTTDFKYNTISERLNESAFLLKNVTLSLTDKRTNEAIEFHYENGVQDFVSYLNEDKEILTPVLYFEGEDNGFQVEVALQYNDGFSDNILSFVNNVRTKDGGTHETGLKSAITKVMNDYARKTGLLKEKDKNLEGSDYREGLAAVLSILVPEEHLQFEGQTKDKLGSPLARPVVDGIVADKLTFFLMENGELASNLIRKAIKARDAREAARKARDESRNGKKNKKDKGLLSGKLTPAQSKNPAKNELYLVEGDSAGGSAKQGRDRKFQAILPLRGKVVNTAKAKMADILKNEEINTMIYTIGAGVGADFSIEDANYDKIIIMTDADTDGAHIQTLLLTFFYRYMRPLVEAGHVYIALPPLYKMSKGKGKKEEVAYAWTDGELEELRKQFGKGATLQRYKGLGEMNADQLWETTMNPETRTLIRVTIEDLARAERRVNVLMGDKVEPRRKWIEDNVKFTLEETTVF
`COc1cc(Nc2ncc(-c3cnc(OCCCS(C)(=O)=O)c(C(=O)NS(C)(=O)=O)c3)c(-n3nc(C(F)(F)F)cc3C)n2)cc(OC)c1` [Example 970, 5-(2-(3,5-dimethoxyphenylamino)-4-(5-methyl-3-(trifluoromethyl)-1H-pyrazol-1-yl)pyrimidin-5-yl)-N-(methylsulfonyl)-2-(3-(methylsulfonyl)propoxy)nicotinamide]: the inhibition at 13 µM was 100%. For `CNC(=O)/C=C/c1cccc(-c2cnc(Nc3ccc(F)c(Cl)c3)nc2N2CCOCC2)c1` [Example 375, (E)-3-(3-(2-(3-chloro-4-fluorophenylamino)-4-morpholinopyrimidin-5-yl)phenyl)-1H-methylacrylamide] the value was 75.9%; for `CCOC(=O)c1cncc(-c2cnc(Nc3ccc(F)c(Cl)c3)nc2N2CCOCC2)c1` [Example 144, ethyl 5-(2-(3-chloro-4-fluorophenylamino)-4-morpholinopyrimidin-5-yl)nicotinate], 76.4%. In the case of `Cc1ncsc1CCNc1nc(Nc2ccc(F)c(Cl)c2)ncc1-c1cncc(C(=O)O)c1` [Example 262, 5-(2-[(3-chloro-4-fluorophenyl)amino]-4-{[2-(4-methyl-1,3-thiazol-5-yl)ethyl]amino}pyrimidin-5-yl)pyridine-3-carboxylic acid], the inhibition at 13 µM worked out at 80.5%. For `COc1ncc(-c2cnc(Nc3cc(C)cc(F)c3)nc2-n2nc(C(F)(F)F)cc2C)cc1C(=O)O` [Example 755, 5-{2-[(3-fluoro-5-methylphenyl)amino]-4-[5-methyl-3-(trifluoromethyl)-1H-pyrazol-1-yl]pyrimidin-5-yl}-2-methoxypyridine-3-carboxylic acid] the value was 100%; for `COc1cc(Nc2ncc(-c3cncc(C(=O)NCCO)c3)c(-n3ccc(C(F)(F)F)n3)n2)cc(OC)c1` [Example 682, 5-{2-[(3,5-dimethoxyphenyl)amino]-4-[3-(trifluoromethyl)-1H-pyrazol-1-yl]pyrimidin-5-yl}-N-(2-hydroxyethyl)pyridine-3-carboxamide], 100%.

Consider `Cc1nccn1-c1nc(Nc2ccc(F)c(Cl)c2)ncc1-c1cncc(C(=O)O)c1` [Example 310, 5-{2-[(3-chloro-4-fluorophenyl)amino]-4-(2-methyl-1H-imidazol-1-yl)pyrimidin-5-yl}pyridine-3-carboxylic acid], for which the inhibition at 13 µM came to 80%.

Turning to `CCOC(=O)CNc1nc(Nc2ccc(F)c(Cl)c2)ncc1-c1cncc(C(=O)OCC)c1` [Example 111, ethyl 5-[2-[(3-chloro-4-fluorophenyl)amino]-4-[(2-ethoxy-2-oxoethyl)amino]pyrimidin-5-yl]pyridine-3-carboxylate], the inhibition at 13 µM was -13.9%. Under `Cc1nccn1-c1nc(Nc2ccc(F)c(Cl)c2)ncc1-c1cncnc1` [Example 85, N-(3-chloro-4-fluorophenyl)-4-(2-methyl-1H-imidazol-1-yl)-5,5′-bipyrimidin-2-amine] stands 66.8%; under `COc1ccccc1-c1cnc(Nc2ccc(F)c(Cl)c2)nc1NCCCN(C)C` [Example 28, N^2-(3-chloro-4-fluorophenyl)-N^4-[3-(dimethylamino)propyl]-5-(2-methoxyphenyl)-pyrimidin-2,4-diamine], 62.6%; under `COCCCNc1nc(Nc2ccc(F)c(Cl)c2)ncc1-c1cnc(OC)nc1` [Example 78, N^2-(3-chloro-4-fluorophenyl)-2′-methoxy-N^4-(3-methoxypropyl)-5,5′-bipyrimidine-2,4-diamine], 80.9%.

As to `Cc1cc(C#N)cc(Nc2ncc(-c3cncc(C(=O)O)c3)c(-n3ccc(C(F)(F)F)n3)n2)c1` [Example 784, 5-{2-[(3-cyano-5-methylphenyl)amino]-4-[3-(trifluoromethyl)-1H-pyrazol-1-yl]pyrimidin-5-yl}pyridine-3-carboxylic acid], the inhibition at 13 µM amounted to 70%. Under `COc1cc(Nc2ncc(-c3cccc(/C=C/C(=O)O)c3)c(-n3nc(C(F)(F)F)cc3C)n2)cc(C(F)(F)F)c1` [Example 880, (E)-3-(3-(2-(3-methoxy-5-(trifluoromethyl)phenylamino)-4-(5-methyl-3-(trifluoromethyl)-1H-pyrazol-1-yl)pyrimidin-5-yl)phenyl)acrylic acid] stands 91%; under `CS(=O)(=O)c1cccc(Nc2ncc(-c3cncc(C(=O)O)c3)c(-n3ccc(C(F)(F)F)n3)n2)c1` [Example 643, 5-(2-{[3-(methylsulfonyl)phenyl]amino}-4-[3-(trifluoromethyl)-1H-pyrazol-1-yl]pyrimidin-5-yl)pyridine-3-carboxylic acid], 100%; under `CCOC(=O)c1cncc(-c2cnc(Nc3ccc(F)c(Cl)c3)nc2NCCN2CCS(=O)(=O)CC2)c1` [Example 104, 5-{2-(3-Chloro-4-fluoro-phenylamino)-4-[2-(1,1-dioxo-1λ^6-thiomorpholin-4-yl)-ethylamino]-pyrimidin-5-yl}-nicotinic acid ethyl ester], 76.2%. For `COc1ccc(CNc2nc(Nc3ccc(F)c(Cl)c3)ncc2-c2cnc(OC)nc2)cn1` [Example 465, N2-(3-chloro-4-fluorophenyl)-2′-methoxy-N4-((6-methoxypyridin-3-yl)methyl)-5,5′-bipyrimidine-2,4-diamine], the inhibition at 13 µM stood at 59%. For `COCC(COC)NC(=O)c1cncc(-c2cnc(Nc3ccc(F)c(Cl)c3)nc2-n2nc(C(F)(F)F)cc2C)c1` [Example 935, 5-(2-(3-chloro-4-fluorophenylamino)-4-(5-methyl-3-(trifluoromethyl)-1H-pyrazol-1-yl)pyrimidin-5-yl)-N-(1,3-dimethoxypropan-2-yl)nicotinamide] the value was 100%; for `CN(C)CCCNc1nc(Nc2ccc(F)c(Cl)c2)ncc1-c1ccc(CCC(=O)O)cc1` [Example 27, 3-[4-(2-[(3-chloro-4-fluorophenyl)amino]-4-{[3-(dimethylamino)propyl]-amino}pyrimidin-5-yl)phenyl]propanoic acid], 89.2%. For `COCCCNc1nc(Nc2ccc(F)c(Cl)c2)ncc1-c1cccc(/C=C/C(=O)O)c1` [Example 293, (E)-3-(3-(2-(3-chloro-4-fluorophenylamino)-4-(3-methoxypropylamino)-pyrimidin-5-yl)phenyl)acrylic acid] the value was 85.3%; for `CCN(CC)S(=O)(=O)c1cncc(-c2cnc(Nc3ccc(F)c(Cl)c3)nc2-n2nc(C(F)(F)F)cc2C)c1` [Example 1034], 96%. Turning to `CCN1CC(CNc2nc(Nc3ccc(F)c(Cl)c3)ncc2-c2cnc(OC)nc2)CC1=O` (centres unmarked) [Example 467, 4-((2-(3-chloro-4-fluorophenylamino)-2′-methoxy-5,5′-bipyrimidin-4-ylamino)methyl)-1-ethylpyrrolidin-2-one], the inhibition at 13 µM is 76%. For `COc1cc(C#N)cc(Nc2ncc(-c3cnc(OC)c(C(=O)O)c3)c(-n3ccc(C(F)(F)F)n3)n2)c1` [Example 736, 5-{2-[(3-cyano-5-methoxyphenyl)amino]-4-[3-(trifluoromethyl)-1H-pyrazol-1-yl]pyrimidin-5-yl}-2-methoxypyridine-3-carboxylic acid] the value was 100%; for `CN(C)CCNc1nc(Nc2ccc(F)c(Cl)c2)ncc1-c1cncc(C(=O)O)c1` [Example 220, 5-[2-(3-Chloro-4-fluoro-phenylamino)-4-(2-dimethylamino-ethylamino)-pyrimidin-5-yl]-nicotinic acid], 79%; for `COc1cc(Nc2ncc(-c3cnc(OC)c(C(=O)NS(=O)(=O)c4sc(C)nc4C)c3)c(-n3nc(C(F)(F)F)cc3C)n2)cc(OC)c1` [Example 837, 5-{2-[(3,5-dimethoxyphenyl)amino]-4-[5-methyl-3-(trifluoromethyl)-1H-pyrazol-1-yl]pyrimidin-5-yl}-N-[(2,4-dimethyl-1,3-thiazol-5-yl)sulfonyl]-2-methoxypyridine-3-carboxamide], 94%. On to `CCOC(=O)/C=C/c1cccc(-c2cnc(Nc3ccc(F)c(Cl)c3)nc2N2CCN(C)CC2)c1` [Example 170, (E)-ethyl 3-(3-(2-(3-chloro-4-fluorophenylamino)-4-(4-methylpiperazin-1-yl)pyrimidin-5-yl)phenyl)acrylate], for which the inhibition at 13 µM was 46%.

For the compound `CCNC(=O)NS(=O)(=O)c1cccc(-c2cnc(Nc3ccc(F)c(Cl)c3)nc2-n2ccc(C(F)(F)F)n2)c1` [Example 998, 3-(2-(3-Chloro-4-fluorophenylamino)-4-(3-(trifluoromethyl)-1H-pyrazol-1-yl)pyrimidin-5-yl)-N-(ethylcarbamoyl)benzenesulfonamide], the inhibition at 13 µM was found to be 100%.

On to `Cn1cc(-c2cnc(Nc3ccc(F)c(Cl)c3)nc2-n2ccc(C(F)(F)F)n2)cc(C(=O)O)c1=O` [Example 1087, 5-(2-(3-Chloro-4-fluorophenylamino)-4-(3-(trifluoromethyl)-1H-pyrazol-1-yl)pyrimidin-5-yl)-1-methyl-2-oxo-1,2-dihydropyridine-3-carboxylic acid], for which the inhibition at 13 µM was 100%. For `CN(C)CCCNc1nc(Nc2ccc(F)c(Cl)c2)ncc1-c1cncc(-c2nnn[nH]2)c1` [Example 938, 5-(5-(1H-tetrazol-5-yl)pyridin-3-yl)-N2-(3-chloro-4-fluorophenyl)-N4-(3-(dimethylamino)propyl)pyrimidin-2,4-diamine] the value was 91%; for `COCCCNc1nc(Nc2ccc(F)c(Cl)c2)ncc1-c1nc(-c2cncn2C)cs1` [Example 504, N^2-(3-chloro-4-fluorophenyl)-N^4-(3-methoxypropyl)-5-[4-(1-methyl-1H-imidazol-5-yl)-1,3-thiazol-2-yl]pyrimidine-2,4-diamine], 83%.
